The source made the active and inactive calls.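 How the source made its calls: active means fitted curve crossing a set activation limit at or below the highest valid dose tested; inconclusive means flat fit at 30 to 70% activation, or poor fit; inactive means the rest, including signal decreases.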
System: D54 ERlucT glycosylation luciferase reporter, luminescence, 24 h
Experiment: N-linked glycosylation inhibitors, luciferase reporter, dose response, D54 ERlucT cells, luminescence, cherry-picks (AID 624491);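 further: signal gain reflects blocked N-linked glycosylation of a luciferase reporter; actives raise luciferase signal so AC26 marks activators of the reporter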

In order of falling AC26:
1. CC1(C(=O)NCCC(F)(F)F)Cc2c(-c3cccc(C(F)(F)F)c3)ccnc2O1 (stereo not drawn)  15200 nM
2. O=C(Cc1ccc(-c2ccccc2)cc1)NCc1cccnc1  12400 nM
3. Cc1cc(C)c2c(c1)cc(C)c1nnc(SCC(=O)Nc3cc(C)on3)n12  12000 nM
4. CC(=O)Nc1ccc(CC(=O)NCCC(c2ccccc2)c2ccccc2)cc1  11300 nM
5. CCN1CCN(c2ccc([N+](=O)[O-])cc2C(=O)c2ccc(Cl)cc2)CC1  11200 nM
6. COC(=O)c1cc(=O)n(-c2ccccc2)c(=Nc2ccccc2)s1  10800 nM
7. COC(=O)c1ccc(S(=O)(=O)N2CCc3ccccc32)cc1  10600 nM
8. c1cnc2nc3c4ccccc4c4ccccc4c3nc2c1  10200 nM
9. CC(=O)n1cc(/C=N/NC(=O)c2sc(C)nc2C)c2ccccc21  10000 nM
10. Cc1ccc(C)c(NC(=O)Cn2nnc(C(=O)NCc3ccco3)c2N)c1  9800 nM
11. CCOc1cc(-c2c(C#N)c(N)nc3c2CCc2ccccc2-3)ccc1O  9010 nM
12. Cc1cccn2c(=O)c3cc(C(=O)NCCN4CCOCC4)c(=N)n(CCc4ccccc4)c3nc12  8760 nM
13. CCOCCCNC(=O)c1cc2c(=O)n(CC)c3ccccc3c2s1  8290 nM
14. Cc1cccn2c(=O)c3cc(C(=O)NC4CCCC4)c(=N)n(CC4CCCO4)c3nc12 (stereo not drawn)  8180 nM
15. COc1ccc(OC)c(NS(=O)(=O)c2ccc(SC)cc2)c1  7410 nM
16. c1ccc2c(c1)nc(N1CCOCC1)c1c3ccccc3[nH]c21  7170 nM
17. CCc1ccc(Nc2n[n+](-c3ccccc3)c(-c3ccc(N(CC)CC)cc3)s2)cc1  7030 nM
18. CC(NC(=O)c1cccc2ccccc12)c1ccc2c(c1)CCCC2 (stereo not drawn)  6480 nM
19. Cn1nc(-c2ccc(Cl)cc2)c2cc(C(=O)NC3CC3)sc21  6320 nM
20. COc1ccc(/C=C2\SC(=S)N(CCC(=O)NC3CCCC3)C2=O)cc1OC  6270 nM
21. O=C(COc1ccccc1)Nc1cccc(-c2cn3cccnc3n2)c1  5880 nM
22. COc1ccc(C(=O)N/N=C/C23CC[C@@H](O)CC2(O)CC[C@@H]2[C@@H]3CCC3(C)C(C4=CC(=O)OC4)CCC23O)cc1 (stereo partly drawn)  5710 nM
23. COc1ccc(NC(=O)C(=O)NCCC2CCCCN2S(=O)(=O)c2ccccc2)cc1 (stereo not drawn)  5680 nM
24. Cc1nnc2c(NC3CCCC3)nc3ccccc3n12  5060 nM
25. Cc1nn(-c2ccccc2)c(Cl)c1/C=C/C(=O)c1ccc(O)cc1  5020 nM
26. CCc1ccc(Oc2coc3cc(OCC(=O)Nc4cc(C)ccc4C)ccc3c2=O)cc1  4860 nM
27. O=C(COC(=O)c1ccc(NS(=O)(=O)c2cccs2)cc1O)NCc1ccccc1  4820 nM
28. COc1cc2c(cc1OC)CN(c1ccc(C(F)(F)F)cn1)CC2  4710 nM
29. Cc1ccc(C(=O)c2coc3c2C(=O)C(=O)c2ccccc2-3)cc1  4630 nM
30. Cc1cc(C)nc(N2Cc3ccccc3C2=N)n1  4560 nM
31. Cn1c(C(=O)NC2CCCCCC2)cc2c(=O)n(C)c3ccccc3c21  4470 nM
32. Cc1noc(C)c1-c1ccc(C(=O)NCCc2ccccc2)c2occc12  4410 nM
33. Cn1nc(-c2ccc(Cl)cc2)c2cc(C(=O)NCCCN3CCOCC3)sc21  4330 nM
34. Nc1nc(-c2ccccc2)cc(N2CCCCC2)n1  4270 nM
35. O=C1CCCN1CCCNc1nc(NCc2ccccc2)nc2ccsc12  4240 nM
36. CCc1ccc2[nH]c3nc(SCC(=O)NNC(=O)c4ccc(C(C)(C)C)cc4)nnc3c2c1  4110 nM
37. Cn1nc(C(F)(F)F)c(/C=N/OC(=O)c2ccccc2Cl)c1SCc1ccc(Cl)cc1  3940 nM
38. CCOc1ccc(NC(=S)NC(=O)/C=C/c2ccc(C)cc2)c([N+](=O)[O-])c1  3930 nM
39. O=C(NCCc1ccccc1)c1cc(-c2ccco2)on1  3780 nM
40. COc1cc2nc(N(C)C)nc(N)c2cc1OC  3660 nM
41. COc1cccc(-c2nc(N3CCN(C)CC3)c3ccccc3n2)c1O  3610 nM
42. Cc1ccc(S(=O)(=O)Cc2ccc(C(=O)N3CCN(c4cccc(C)c4C)CC3)o2)cc1  3450 nM
43. COc1cc2c(cc1OC)CN(c1ccc(-c3ccccc3OC)nn1)CC2  3380 nM
44. COC(=O)Nc1nc2ccc(-c3n[nH]c(=O)c4ccccc34)cc2[nH]1  3350 nM
45. O=C(Nc1c2ccccc2nc2ccccc12)C(Cl)(Cl)Cl  3340 nM
46. COc1ccc([C@H]2CC(=O)C=C(c3c(OC)cccc3OC)C2)cc1  3260 nM
47. O=C(NCc1ccco1)c1nn2c(C(F)(F)F)cc(-c3cccs3)nc2c1Br  3250 nM
48. COc1cc(/C=N\NC(=O)c2sc(N)nc2C)cc(OC)c1OC  3140 nM
49. Cc1ccc2nc(-c3ccncc3)cc(C(=O)Nc3ccncc3)c2c1  3050 nM
50. COc1ccc([C@@H]2[C@@H]3C(=O)N(C(C)(C)C)C(=O)[C@@H]3[C@]3(Cc4ccccc4)C(=O)N(c4cccc(Cl)c4)C(=O)N23)cc1  2990 nM
51. O=C(C=Cc1ccccc1O)c1ccccc1O  2850 nM
52. CNc1ccc(/C=C/C(=O)c2cccc3ccccc23)cc1[N+](=O)[O-]  2810 nM
53. O=C(NCc1ccc(F)c(F)c1)C1Cc2c(-c3ccc4c(c3)OCO4)ccnc2O1 (stereo not drawn)  2750 nM
54. COc1ccc(CNC(=O)c2cccc3c(-c4cccnc4)coc23)cc1OC  2690 nM
55. COc1cc(-c2cnc3c(NC(C)=O)cc(-c4ccccc4CN(C)C)cn23)cc(OC)c1OC  2650 nM
56. NNC(=O)c1oc2nc(-c3cccs3)cc(-c3ccco3)c2c1N  2640 nM
57. COc1ccc(NC(=O)C2Cc3c(-c4cccc(NC(C)=O)c4)ccnc3O2)cn1 (stereo not drawn)  2590 nM
58. Cc1ccc(OCCN2C(=O)C(=O)c3cc(C)ccc32)cc1  2460 nM
59. COC(=O)c1c(C)[nH]c(C(=O)/C=C/c2cccc(Cl)c2)c1C  2410 nM
60. COc1ccc2cc(C)c3nnc(SCC(=O)Nc4nc(-c5ccc(F)cc5)cs4)n3c2c1  2360 nM
61. COc1cc(-n2c(N)c(C(=O)NCc3ccco3)c3nc4ccccc4nc32)cc(OC)c1OC  2090 nM
62. CC1(C(=O)NCc2cccs2)Cc2c(-c3ccc4c(c3)OCO4)ccnc2O1 (stereo not drawn)  2060 nM
63. C=CCn1c(SCc2c(C)noc2C)nc2sc3c(c2c1=O)CCC(C)C3 (stereo not drawn)  2060 nM
64. c1ccc(N=Nc2ccc3cccccc2-3)cc1  2060 nM
65. CN(C)/N=C/c1ccc(Sc2ccc([N+](=O)[O-])cc2[N+](=O)[O-])o1  1880 nM
66. Cn1c(=O)c2cc(NC(=O)CCc3ccccc3)ccc2n1-c1ccccc1F  1780 nM
67. COc1ccc(C2C3=C(COC3=O)Oc3cc4c(cc32)OCO4)cc1OC (stereo not drawn)  1780 nM
68. COC(=O)c1cc(C(=O)c2c(C)cc3ccccn23)cc([N+](=O)[O-])c1  1770 nM
69. CC(C)COc1ccc(C(=O)OCC(=O)NCc2cccs2)cc1  1750 nM
70. N#Cc1c(NCCN)nc(-c2ccco2)c2c1CCCC2  1730 nM
71. O=C(Oc1ccccc1C(=O)Nc1ccccc1)c1ccccc1Br  1670 nM
72. CCOc1cc(CNc2ccc3cn[nH]c3c2)ccc1OC  1550 nM
73. CCN(CC(=O)Nc1ccccc1-c1ccccc1)Cc1nc2ccccc2c(=O)[nH]1  1470 nM
74. COc1ccc(C(=O)CC(SCC(NC(C)=O)C(=O)O)c2ccc(Cl)cc2)cc1OC (stereo not drawn)  1440 nM
75. Cn1cnc([N+](=O)[O-])c1S(=O)(=O)Oc1ccccc1  1420 nM
76. COc1ccc(-c2ccnc(-c3ccncc3)n2)cc1  1390 nM
77. Cc1cc2nnc(SCC(=O)NCc3ccco3)n2c2ccccc12  1360 nM
78. CCCCCCC(=O)N(O)C1CC(=O)N(c2ccc(F)cc2)C1=O (stereo not drawn)  1290 nM
79. COc1ccc(C(=O)c2cc(OC)c(OC)c(OC)c2)cc1OC  1250 nM
80. CCC(Cc1ccccc1)NC(=O)c1ccc2nc(N3CCOCC3)sc2c1 (stereo not drawn)  1250 nM
81. O=C(CCN1C(=O)/C(=C/c2cccs2)SC1=S)N1CCCCC1  1220 nM
82. CCOC(=O)/C(=C\c1ccccc1)C(=O)c1cc(C(C)=O)c(Nc2ccccc2)s1  1150 nM
83. CC(=O)c1cccc(-c2ccnc3c2CC(C(=O)NCc2cccs2)O3)c1 (stereo not drawn)  1070 nM
84. COc1ccc2c(c1)OC[C@H]1[C@H]2N2C(=O)c3cc(Br)ccc3NC(=O)[C@@]2(C)[C@H]1c1ccccc1  976 nM
85. CC(=O)Nc1cc(-c2cccc(C(=O)N(C)C)c2)cn2c(-c3cccc(C(=O)N(C)C)c3)cnc12  897 nM
86. CC1CCC2(CC1)NC(=O)N(CC(=O)Nc1ccc3c(c1)CCC3)C2=O (stereo not drawn)  826 nM
87. CN(C)CCNC(=O)c1cccc2nc3c(ccc4ccccc43)nc12  719 nM
88. COc1ccccc1/C=C/C(=O)/C=C/c1ccccc1O  696 nM
89. CC1=Nc2cc(C(=O)NCC3CCCO3)ccc2Sc2ccc(C)cc21 (stereo not drawn)  662 nM
90. CCc1cccc(NC(=O)c2cc(S(=O)(=O)N(C)C)ccc2N2CCCC2)c1  646 nM
91. O=C(/C=C/c1cn(-c2ccccc2)nc1-c1cccnc1)c1ccco1  628 nM
92. COc1ccc2c(c1)[C@H]1[C@H](CO2)[C@H](c2ccccc2)[C@]2(C)C(=O)Nc3cc(F)c(F)cc3C(=O)N12  544 nM
93. COc1ccc(C2=NOC(C(=O)NCc3ccc(F)cc3)C2)cc1 (stereo not drawn)  516 nM
94. NC(=O)CC(NC(=O)Cc1ccc(Br)cc1)c1ccc(NC2CCN(Cc3ccccc3)CC2)c([N+](=O)[O-])c1 (stereo not drawn)  496 nM
95. CCC1=Nc2cc(C(=O)NCCCOC)ccc2Sc2ccccc21  422 nM
96. COc1ccc2c(c1)C(=O)N1[C@H]3c4cc(C)ccc4OC[C@@H]3[C@H](c3ccccc3)[C@]1(C)C(=O)N2  358 nM
97. COc1ccc(Nc2oc(-c3ccc(Cl)cc3)nc2C#N)cc1  348 nM
98. COc1cc2c(C#CCCO)c(-c3ccsc3)oc(=O)c2cc1OC  226 nM
99. O=C(c1cccs1)N1CCC(c2nc3c(nnn3Cc3cccc(Cl)c3)c(=O)[nH]2)CC1  217 nM
100. CC1(C)Cc2nc3sc4c(SCC(=O)NCc5ccccc5)ncnc4c3cc2CO1  160 nM
101. COc1cc(-c2noc(C)c2-c2ccc(N(C)C)nc2)cc(OC)c1OC  112 nM
102. COc1cccc(N2CCN(C(=O)c3ccc(CS(=O)c4ccc(C)cc4)o3)CC2)c1 (stereo not drawn)  110 nM
103. COc1ccc(-c2cnc3c(NC=O)cc(-c4ccccc4)cn23)cc1OC  97.1 nM
104. COc1cc(N)ccc1Nc1c2ccccc2nc2ccccc12  70 nM
105. Cn1cc(/C=N/n2cnc3scc(-c4ccc(Cl)cc4)c3c2=O)c2ccccc21  58.4 nM
106. COc1ccc2c(c1)[C@H]1[C@H](CO2)[C@H](c2ccccc2)[C@]2(C)C(=O)Nc3cc(OC)c(OC)cc3C(=O)N12  13.1 nM
107. Cc1cc(C)nc(/N=C(\N)Nc2ccc(OCc3ccccc3)cc2)n1  8.88 nM

For `COC(=O)C1=C(c2cc3ccccc3o2)C[C@@H]2CC[C@H]1N2C(=O)N1CCOCC1`, the AC26 was > 19500 nM (inactive).

— PubChem BioAssay AID624491 (Broad Institute, 2012)
